{"source": "patent US11312712B2", "about": "“Azabenzimidazoles and their use as AMPA receptor modulators” (Janssen Pharmaceutica NV, priority 2015, dated 2022)"}
{"molecular_target": "GluA1o-γ8 (GRIA1o-CACNG8 fusion construct) (Homo sapiens (Human), UniProt P42261+Q8WXS5)", "sequence (P42261 other isoform, or with tags, fused parts or gaps)": "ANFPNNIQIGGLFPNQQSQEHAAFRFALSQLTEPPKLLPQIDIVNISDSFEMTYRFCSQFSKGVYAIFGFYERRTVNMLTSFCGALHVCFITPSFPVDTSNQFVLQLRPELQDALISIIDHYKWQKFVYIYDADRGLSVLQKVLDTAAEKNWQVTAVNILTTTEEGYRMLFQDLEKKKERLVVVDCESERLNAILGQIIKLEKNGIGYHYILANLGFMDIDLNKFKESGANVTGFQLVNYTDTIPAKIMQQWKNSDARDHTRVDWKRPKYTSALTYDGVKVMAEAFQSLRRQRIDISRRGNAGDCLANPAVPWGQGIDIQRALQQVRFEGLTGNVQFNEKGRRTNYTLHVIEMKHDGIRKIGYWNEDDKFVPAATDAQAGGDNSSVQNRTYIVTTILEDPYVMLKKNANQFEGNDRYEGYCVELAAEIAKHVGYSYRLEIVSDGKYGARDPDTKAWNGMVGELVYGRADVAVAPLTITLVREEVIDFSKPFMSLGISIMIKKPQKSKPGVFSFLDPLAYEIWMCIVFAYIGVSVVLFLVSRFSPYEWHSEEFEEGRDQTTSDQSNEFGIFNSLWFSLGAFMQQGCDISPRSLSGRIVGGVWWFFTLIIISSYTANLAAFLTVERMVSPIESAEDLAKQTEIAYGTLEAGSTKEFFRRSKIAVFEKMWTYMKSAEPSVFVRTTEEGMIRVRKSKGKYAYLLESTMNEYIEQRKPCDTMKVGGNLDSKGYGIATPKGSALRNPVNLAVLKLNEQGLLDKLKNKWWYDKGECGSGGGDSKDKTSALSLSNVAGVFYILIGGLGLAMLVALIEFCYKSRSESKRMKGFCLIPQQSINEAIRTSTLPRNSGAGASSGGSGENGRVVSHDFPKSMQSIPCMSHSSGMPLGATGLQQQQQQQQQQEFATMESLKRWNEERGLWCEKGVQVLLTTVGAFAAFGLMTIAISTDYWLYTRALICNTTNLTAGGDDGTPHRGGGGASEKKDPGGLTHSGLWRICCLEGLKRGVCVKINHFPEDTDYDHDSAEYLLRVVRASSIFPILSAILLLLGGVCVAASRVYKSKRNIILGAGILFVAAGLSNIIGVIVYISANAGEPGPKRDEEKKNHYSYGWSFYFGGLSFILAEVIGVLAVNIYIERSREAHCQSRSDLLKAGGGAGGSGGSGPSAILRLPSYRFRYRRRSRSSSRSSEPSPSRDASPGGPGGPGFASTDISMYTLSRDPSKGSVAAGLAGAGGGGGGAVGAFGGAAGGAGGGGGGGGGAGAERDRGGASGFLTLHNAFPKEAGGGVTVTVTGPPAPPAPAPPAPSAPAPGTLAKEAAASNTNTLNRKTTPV", "test": "Calcium flux assay (FLIPR), inhibition of TARP γ8 dependent AMPA receptor activity", "assay_type": "cell-based", "settings": "GluA1o-γ8 (GRIA1o-CACNG8 fusion) in HEK293 cells, calcium flux after 15 μM glutamate", "method_in_brief": "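HEK293 cells stably expressing a 1:1 GRIA1o–CACNG8 fusion were loaded with Calcium-5/6 dye plus compound in pH 7.4 HEPES-buffered saline. FLIPR calcium flux after 15 μM glutamate was normalized to untreated and 10 μM CP465022 controls, and a four-parameter logistic fit gave pIC50.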", "units": {"IC50": "nM"}}
{"smiles": "Cc1cc(-n2c(C(C)C)nc3ccc(C(F)(F)F)nc32)cc2c1NC(=O)C2", "note": "[Example 310, 5-[2-Isopropyl-5-(trifluoromethyl)imidazo[4,5-b]pyridin-3-yl]-7-methyl-indolin-2-one]", "IC50": 0.158}
{"smiles": "Cc1cc(-n2c(C(C)C)nc3ccc(C(F)(F)F)nc32)cc2[nH]ncc12", "note": "[Example 311, 2-Isopropyl-3-(4-methyl-1H-indazol-6-yl)-5-(trifluoromethyl)imidazo[4,5-b]pyridine]", "IC50": 15.8}
{"smiles": "Cc1nc2ccc(C(F)(F)F)nc2n1-c1cc(Cl)c2[nH]ncc2c1", "note": "[Example 312, 3-(7-Chloro-1H-indazol-5-yl)-2-methyl-5-(trifluoromethyl)imidazo[4,5-b]pyridine]", "IC50": 0.251}
{"smiles": "Cc1nc2ccc(C(F)(F)F)nc2n1-c1cc(Cl)c2c(c1)CC(=O)N2", "note": "[Example 313, 7-Chloro-5-[2-methyl-5-(trifluoromethyl)imidazo[4,5-b]pyridin-3-yl]indolin-2-one]", "IC50": 1}
{"smiles": "CCc1nc2ccc(C(F)(F)F)nc2n1-c1cc(Cl)c2[nH]ncc2c1", "note": "[Example 314, 3-(7-Chloro-1H-indazol-5-yl)-2-ethyl-5-(trifluoromethyl)imidazo[4,5-b]pyridine]", "IC50": 0.0316}
{"smiles": "CCc1nc2ccc(C(F)(F)F)nc2n1-c1cc(C)c2[nH]ncc2c1", "note": "[Example 315, 2-Ethyl-3-(7-methyl-1H-indazol-5-yl)-5-(trifluoromethyl)imidazo[4,5-b]pyridine]", "IC50": 0.1}
{"smiles": "CC(C)c1nc2ccc(C(F)(F)F)nc2n1-c1cc(Cl)c2[nH]ncc2c1", "note": "[Example 316, 3-(7-Chloro-1H-indazol-5-yl)-2-isopropyl-5-(trifluoromethyl)imidazo[4,5-b]pyridine]", "IC50": 0.02}
{"smiles": "Cc1cc(-n2c(C(F)(F)F)nc3cccnc32)cc2cn[nH]c12", "note": "[Example 317, 3-(7-Methyl-1H-indazol-5-yl)-2-(trifluoromethyl)imidazo[4,5-b]pyridine]", "IC50": 10}
{"smiles": "Cc1cc(-n2c(C(F)(F)F)nc3cccnc32)cc2c1NC(=O)C2", "note": "[Example 318, 7-Methyl-5-[2-(trifluoromethyl)imidazo[4,5-b]pyridin-3-yl]indolin-2-one]", "IC50": 31.6}
{"smiles": "Cc1cc(-n2c(C)nc3ccc(C(F)(F)F)nc32)cc2cn[nH]c12", "note": "[Example 319, 2-Methyl-3-(7-methyl-1H-indazol-5-yl)-5-(trifluoromethyl)imidazo[4,5-b]pyridine]", "IC50": 0.631}
{"smiles": "FC(F)(F)c1nc2ccc(-c3ccccn3)nc2n1-c1ccc2[nH]ncc2c1", "note": "[Example 320, 3-(1H-Indazol-5-yl)-5-(2-pyridyl)-2-(trifluoromethyl)imidazo[4,5-b]pyridine]", "IC50": 200}
{"smiles": "FC(F)c1ccc2nc(C3CC3)n(-c3ccc4[nH]ncc4c3)c2n1", "note": "[Example 321, 2-Cyclopropyl-5-(difluoromethyl)-3-(1H-indazol-5-yl)imidazo[4,5-b]pyridine]", "IC50": 1}
{"smiles": "Fc1ccc(-c2nc3ccc(C(F)F)nc3n2-c2ccc3[nH]ncc3c2)cc1", "note": "[Example 322, 5-(Difluoromethyl)-2-(4-fluorophenyl)-3-(1H-indazol-5-yl)imidazo[4,5-b]pyridine]", "IC50": 0.0631}
{"smiles": "FC(F)c1ccc2nc(-c3ccccc3)n(-c3ccc4[nH]ncc4c3)c2n1", "note": "[Example 323, 5-(Difluoromethyl)-3-(1H-indazol-5-yl)-2-phenyl-imidazo[4,5-b]pyridine]", "IC50": 0.0501}
{"smiles": "FC(F)c1ccc2nc(C(F)(F)F)n(-c3cc(Cl)c4[nH]ncc4c3)c2n1", "note": "[Example 324, 3-(7-Chloro-1H-indazol-5-yl)-5-(difluoromethyl)-2-(trifluoromethyl)imidazo[4,5-b]pyridine]", "IC50": 0.0501}
{"smiles": "O=C1Cc2cc(-n3c(C(F)(F)F)nc4ccc(C(F)F)nc43)cc(F)c2N1", "note": "[Example 325, 5-[5-(Difluoromethyl)-2-(trifluoromethyl)imidazo[4,5-b]pyridin-3-yl]-7-fluoro-indolin-2-one]", "IC50": 0.316}
{"smiles": "Cc1cc(-n2c(C(F)(F)F)nc3ccc(C(F)F)nc32)cc2cn[nH]c12", "note": "[Example 326, 5-(Difluoromethyl)-3-(7-methyl-1H-indazol-5-yl)-2-(trifluoromethyl)imidazo[4,5-b]pyridine]", "IC50": 0.0398}
{"smiles": "Cc1ccc2nc(-c3ccnc(F)c3)n(-c3cc(Cl)c4[nH]ncc4c3)c2n1", "note": "[Example 327, 3-(7-Chloro-1H-indazol-5-yl)-2-(2-fluoro-4-pyridyl)-5-methyl-imidazo[4,5-b]pyridine]", "IC50": 0.251}
{"smiles": "Cc1cc(-n2c(CO)cc3ccc(C(F)(F)F)nc32)cc2c1NC(=O)C2", "note": "[Example 329, 5-(2-(Hydroxymethyl)-6-(trifluoromethyl)-1H-pyrrolo[2,3-b]pyridin-1-yl)-7-methylindolin-2-one]", "IC50": 1}
{"smiles": "OCc1cc2ccc(C(F)(F)F)nc2n1-c1ccc2[nH]ncc2c1", "note": "[Example 330, (1-(1H-Indazol-5-yl)-6-(trifluoromethyl)-1H-pyrrolo[2,3-b]pyridin-2-yl)methanol]", "IC50": 25.1}
{"smiles": "Cc1cc(-n2c(C)cc3ccc(C(F)(F)F)nc32)cc2c1NC(=O)C2", "note": "[Example 331, 7-Methyl-5-(2-methyl-6-(trifluoromethyl)-1H-pyrrolo[2,3-b]pyridin-1-yl)indolin-2-one]", "IC50": 0.01}
{"smiles": "Cc1cc(-n2c(C(C)C)cc3cccnc32)cc2cn[nH]c12", "note": "[Example 332, 5-(2-Isopropyl-1H-pyrrolo[2,3-b]pyridin-1-yl)-7-methyl-1H-indazole]", "IC50": 0.0398}
{"smiles": "Cc1cc2cccnc2n1-c1cc(Cl)c2[nH]ncc2c1", "note": "[Example 333, 1-(7-Chloro-1H-indazol-5-yl)-2-methyl-pyrrolo[2,3-b]pyridine]", "IC50": 6.31}
{"smiles": "Cc1cc(-n2c(C(C)C)cc3ccc(C(F)F)nc32)cc2c1NC(=O)C2", "note": "[Example 334, 5-[6-(Difluoromethyl)-2-isopropyl-pyrrolo[2,3-b]pyridin-1-yl]-7-methyl-indolin-2-one]", "IC50": 0.0398}
{"smiles": "CC(C)c1cc2ccc(C(F)(F)F)nc2n1-c1ccc2[nH]ncc2c1", "note": "[Example 335, 1-(1H-Indazol-5-yl)-2-isopropyl-6-(trifluoromethyl)pyrrolo[2,3-b]pyridine]", "IC50": 0.0158}
{"smiles": "Cc1cc(-n2c(C(F)F)cc3ccc(C(F)(F)F)nc32)cc2c1NC(=O)C2", "note": "[Example 336, 5-[2-(Difluoromethyl)-6-(trifluoromethyl)pyrrolo[2,3-b]pyridin-1-yl]-7-methyl-indolin-2-one]", "IC50": 0.01}
{"smiles": "O=c1[nH]c2ccc(-n3c(C(F)F)cc4ccc(C(F)(F)F)nc43)cc2s1", "note": "[Example 337, 6-[2-(Difluoromethyl)-6-(trifluoromethyl)pyrrolo[2,3-b]pyridin-1-yl]-3H-1,3-benzothiazol-2-one]", "IC50": 0.126}
{"smiles": "Cc1cc2cccnc2n1-c1cc(Cl)c2c(c1)CC(=O)N2", "note": "[Example 338, 7-Chloro-5-(2-methylpyrrolo[2,3-b]pyridin-1-yl)indolin-2-one]", "IC50": 7.94}
{"smiles": "Cc1cc(-n2cc(O)c3ccc(C(F)(F)F)nc32)cc2cn[nH]c12", "note": "[Example 339, 1-(7-Methyl-1H-indazol-5-yl)-6-(trifluoromethyl)pyrrolo[2,3-b]pyridin-3-ol]", "IC50": 79.4}
{"smiles": "Cc1cc(-n2cc(C(F)F)c3ccc(C(F)(F)F)nc32)cc2cn[nH]c12", "note": "[Example 340, 3-(Difluoromethyl)-1-(7-methyl-1H-indazol-5-yl)-6-(trifluoromethyl)pyrrolo[2,3-b]pyridine]", "IC50": 12.6}
{"smiles": "Cc1ccc2ccn(-c3cc(C)c4[nH]ncc4c3)c2n1", "note": "[Example 341, 6-Methyl-1-(7-methyl-1H-indazol-5-yl)pyrrolo[2,3-b]pyridine]", "IC50": 15.8}
{"smiles": "Cc1ccc2cc(C(C)C)n(-c3ccc4c(c3)CC(=O)N4)c2n1", "note": "[Example 342, 5-(2-Isopropyl-6-methyl-pyrrolo 2,3-bpyridin-1-yl)indolin-2-one]", "IC50": 0.251}
{"smiles": "COc1ccc2cc(-c3ccc(F)cc3)n(-c3ccc4[nH]ccc4c3)c2n1", "note": "[Example 343, 2-(4-Fluorophenyl)-1-(1H-indol-5-yl)-6-methoxy-pyrrolo[2,3-b]pyridine]", "IC50": 631}
{"smiles": "Fc1ccc(-c2cc3cccnc3n2-c2ccc3c(c2)CCN3)cc1", "note": "[Example 344, 2-(4-Fluorophenyl)-1-indolin-5-yl-pyrrolo[2,3-b]pyridine]", "IC50": 501}
{"smiles": "Fc1ccc(-c2cc3cccnc3n2-c2ccc3[nH]ccc3c2)cc1", "note": "[Example 345, 2-(4-Fluorophenyl)-1-(1H-indol-5-yl)pyrrolo[2,3-b]pyridine]", "IC50": 79.4}
{"smiles": "O=C1Cc2cc(-n3c(-c4ccc(F)cc4)c(Br)c4cccnc43)ccc2N1", "note": "[Example 346, 5-[3-Bromo-2-(4-fluorophenyl)pyrrolo[2,3-b]pyridin-1-yl]indolin-2-one]", "IC50": 3.98}
{"smiles": "O=C1Cc2cc(-n3c(-c4ccc(F)cc4)cc4cccnc43)ccc2N1", "note": "[Example 347, 5-[2-(4-Fluorophenyl)pyrrolo[2,3-b]pyridin-1-yl]indolin-2-one]", "IC50": 2.51}
{"smiles": "Fc1ccc(-c2cc3ccc(F)nc3n2-c2ccc3[nH]ccc3c2)cc1", "note": "[Example 348, 6-Fluoro-2-(4-fluorophenyl)-1-(1H-indol-5-yl)pyrrolo[2,3-b]pyridine]", "IC50": 100}
{"smiles": "O=C1Cc2cc(-n3c(-c4ccc(F)cc4)c(Br)c4ccc(F)nc43)ccc2N1", "note": "[Example 349, 5-[3-Bromo-6-fluoro-2-(4-fluorophenyl)pyrrolo[2,3-b]pyridin-1-yl]indolin-2-one]", "IC50": 3.98}
{"smiles": "O=C1Cc2cc(-n3c(-c4ccc(F)cc4)cc4ccc(F)nc43)ccc2N1", "note": "[Example 350, 5-[6-Fluoro-2-(4-fluorophenyl)pyrrolo[2,3-b]pyridin-1-yl]indolin-2-one]", "IC50": 0.794}
{"smiles": "Cc1cc2ccc(C(F)(F)F)nc2n1-c1ccc2[nH]ccc2c1", "note": "[Example 351, 1-(1H-Indol-5-yl)-2-methyl-6-(trifluoromethyl)pyrrolo[2,3-b]pyridine]", "IC50": 25.1}
{"smiles": "Cc1cc2ccc(C(F)(F)F)nc2n1-c1ccc2c(c1)CC(=O)N2", "note": "[Example 352, 5-[2-Methyl-6-(trifluoromethyl)pyrrolo[2,3-b]pyridin-1-yl]indolin-2-one]", "IC50": 0.501}
{"smiles": "Cc1cc(-n2c(C)cc3cccnc32)cc2c1NC(=O)C2", "note": "[Example 353, 7-Methyl-5-(2-methyl-1H-pyrrolo[2,3-b]pyridin-1-yl)indolin-2-one]", "IC50": 12.6}
